Read-outs that look alike come from different tables or passages of the source.
Test system: HCV replicon
Test: microbe, parasite or virus in culture
Format: cell-based
Settings: read-out: Replicon IC5Os
[1] = Replicon IC50 values are determined by firefly luciferase signal, bicistronic replicon, 2 days

SMILES	IC50 [1] [nM]	IC50 (Hepatitis C virus, 48 h) [nM]
CCn1c(-c2cccc(NS(=O)(=O)NC)c2)c(C#N)c2ccc(OC)cc21 [Compound 540]	500 to 2000	
CCNS(=O)(=O)Nc1cccc(-c2c(C#N)c3ccc(OC)cc3n2CC)c1 [Compound 541]	> 2000	
CCCOC(=O)Nc1ccc(-c2c(C#N)c3ccc(OCCF)cc3n2CC)cc1 [Compound 547]	< 500	
COc1ccc2c(C#N)c(-c3cccc(NC(=O)OCCCl)c3)n(C(C)C)c2c1 [Compound 553]	> 2000	
C#CCOC(=O)Nc1cccc(-c2c(C#N)c3ccc(OC)cc3n2C(C)C)c1 [Compound 554]	> 2000	
COCCOC(=O)Nc1cccc(-c2c(C#N)c3ccc(OC)cc3n2C(C)C)c1 [Compound 555]	> 2000	
COc1ccc2c(C#N)c(-c3cccc(NC(=O)OCc4ccccc4)c3)n(C(C)C)c2c1 [Compound 556]	> 2000	
COc1ccc(OC(=O)Nc2cccc(-c3c(C#N)c4ccc(OC)cc4n3C(C)C)c2)cc1 [Compound 557]	500 to 2000	
CCn1c(-c2cccc(NC(=O)CCl)c2)c(C#N)c2ccc(C(F)(F)F)cc21 [Compound 558]	500 to 2000	
CCC(=O)Nc1cccc(-c2c(C#N)c3ccc(C(F)(F)F)cc3n2CC)c1 [Compound 559]	> 2000	
CCn1c(-c2cccc(NC(=O)c3ccccc3)c2)c(C#N)c2ccc(C(F)(F)F)cc21 [Compound 560]	> 2000	
CCn1c(-c2cccc(NC(=O)C3CC3)c2)c(C#N)c2ccc(C(F)(F)F)cc21 [Compound 561]	> 2000	
C=CS(=O)(=O)Nc1cccc(-c2c(C#N)c3ccc(C(F)(F)F)cc3n2CC)c1 [Compound 562]		< 500
CCn1c(-c2ccc(C(=O)NCCNC)cc2)c(C#N)c2ccc(OC)cc21 [Compound 564]	500 to 2000	
CCn1c(-c2ccc(NC(C)=O)cc2)c(C#N)c2ccccc21 [Compound 565]	> 2000	
CCn1c(-c2ccc(NC(=O)COC)cc2)c(C#N)c2ccccc21 [Compound 566]	> 2000	
CCn1c(-c2ccc(C(N)=O)cc2)c(C#N)c2cc(OC)ccc21 [Compound 568]	> 2000	
CCNC(=O)c1ccc(-c2c(C#N)c3cc(OC)ccc3n2CC)cc1 [Compound 569]	500 to 2000	
CCn1c(-c2ccc(C(=O)NC3CC3)cc2)c(C#N)c2cc(OC)ccc21 [Compound 571]	500 to 2000	
CCn1c(-c2ccc(C(=O)NCCOC)cc2)c(C#N)c2cc(OC)ccc21 [Compound 572]	500 to 2000	
CCn1c(-c2ccc(C(=O)N3CCCN(C)CC3)cc2)c(C#N)c2cc(OC)ccc21 [Compound 573]	> 2000	

SMILES	IC50 [1] [nM]	IC50 (Hepatitis C virus, 48 h) [nM]
CCN(CC)S(=O)(=O)Nc1cccc(-c2c(C#N)c3ccc(OC)cc3n2CC)c1 [Compound 574]	> 2000	
CCS(=O)(=O)Nc1ccc(-c2cc3cc(OC)ccc3n2C)cc1 [Compound 575]	500 to 2000	
CCn1c(-c2cccc(NS(=O)(=O)N3CCCC3)c2)c(C#N)c2ccc(OC)cc21 [Compound 576]	> 2000	
CCS(=O)(=O)Nc1ccc(-c2cc3c(OC)cccc3n2C)cc1 [Compound 577]	500 to 2000	
CCn1c(-c2ccc3occc3c2)c(C#N)c2ccc(OC)cc21 [Compound 578]	500 to 2000	
CCn1c(-c2cccc(NC(=O)OC)c2)c(C#N)c2ccc(OC(C)C)cc21 [Compound 581]		500 to 2000
CCOC(=O)Nc1cccc(-c2c(C#N)c3ccc(OC(C)C)cc3n2CC)c1 [Compound 582]		500 to 2000
CCn1c(-c2cccc(NC(=O)OCCF)c2)c(C#N)c2ccc(OC(C)C)cc21 [Compound 583]	500 to 2000	
CCn1c(-c2cccc(NC(=O)OCCCl)c2)c(C#N)c2ccc(OC(C)C)cc21 [Compound 584]	> 2000	
CCCOC(=O)Nc1cccc(-c2c(C#N)c3ccc(OC(C)C)cc3n2CC)c1 [Compound 585]		500 to 2000
CCn1c(-c2cccc(NC(=O)OCCCCl)c2)c(C#N)c2ccc(OC(C)C)cc21 [Compound 586]	500 to 2000	
CCn1c(-c2cccc(NC(=O)OC(C)C)c2)c(C#N)c2ccc(OC(C)C)cc21 [Compound 587]	500 to 2000	
C#CCOC(=O)Nc1cccc(-c2c(C#N)c3ccc(OC(C)C)cc3n2CC)c1 [Compound 588]	> 2000	
CCn1c(-c2cccc(NC(=O)OCCOC)c2)c(C#N)c2ccc(OC(C)C)cc21 [Compound 589]	500 to 2000	
CCn1c(-c2cccc(NC(=O)OCC(C)C)c2)c(C#N)c2ccc(OC(C)C)cc21 [Compound 591]	> 2000	
CC#CCOC(=O)Nc1cccc(-c2c(C#N)c3ccc(OC(C)C)cc3n2CC)c1 [Compound 592]	> 2000	
CCn1c(-c2cccc(NC(=O)OCc3ccccc3)c2)c(C#N)c2ccc(OC(C)C)cc21 [Compound 593]	> 2000	
CCn1c(-c2cccc(NC(=O)OCCl)c2)c(C#N)c2ccc(OC(C)C)cc21 [Compound 594]	> 2000	
CCCCOC(=O)Nc1cccc(-c2c(C#N)c3ccc(OC(C)C)cc3n2CC)c1 [Compound 595]	> 2000	
C=CCOC(=O)Nc1cccc(-c2c(C#N)c3ccc(OC(C)C)cc3n2CC)c1 [Compound 596]	500 to 2000	
C=CC(C)OC(=O)Nc1cccc(-c2c(C#N)c3ccc(OC(C)C)cc3n2CC)c1 (centres unmarked) [Compound 597]	> 2000	

SMILES	IC50 [1] [nM]	IC50 (Hepatitis C virus, 48 h) [nM]
CCCn1c(-c2cccc(NS(=O)(=O)CC)c2)c(C#N)c2ccc(OC)cc21 [Compound 599]	> 2000	
CCCNC(=O)Nc1cccc(-c2c(C#N)c3ccc(OC)cc3n2CCC)c1 [Compound 600]	> 2000	
CCOC(=O)Nc1cc(-c2c(C#N)c3ccc(OC(C)C)cc3n2CC)ccc1OC [Compound 603]	> 2000	
CCOC(=O)Nc1ccc(F)c(-c2c(C#N)c3ccc(OC(C)C)cc3n2CC)c1 [Compound 604]	> 2000	
CCOC(=O)Nc1cccc(-c2c(C#N)c3cc(N4CCOCC4)ccc3n2CC)c1 [Compound 605]	> 2000	
CCCS(=O)(=O)Nc1ccc(-c2c(C#N)c3cc(N4CCOCC4)ccc3n2CC)cc1 [Compound 608]	500 to 2000	
CCn1c(-c2ccc(NS(=O)(=O)CC)cc2)c(C#N)c2cc(N3CCOCC3)ccc21 [Compound 609]	500 to 2000	
CCn1c(-c2ccc(NS(=O)(=O)CC(F)(F)F)cc2)c(C#N)c2cc(Cl)ccc21 [Compound 615]	> 2000	
CCNC(=O)Nc1ccc(-c2c(C#N)c3cc(Cl)ccc3n2CC)cc1 [Compound 620]	500 to 2000	
CCCn1c(-c2ccc(NC(=O)OCC)cc2)c(C#N)c2ccc(OC)cc21 [Compound 624]	500 to 2000	
CCCOC(=O)Nc1ccc(-c2c(C#N)c3ccc(OC)cc3n2CCC)cc1 [Compound 625]	< 500	
CCn1c(-c2cccc(NS(=O)(=O)CCCCl)c2)c(C#N)c2cc(Cl)ccc21 [Compound 629]	> 2000	
CC(C)CCn1c(-c2ccc(NS(C)(=O)=O)cc2)c(C#N)c2cc(Cl)ccc21 [Compound 630]	500 to 2000	
C=Cn1c(-c2ccc(NS(C)(=O)=O)cc2)c(C#N)c2ccc(OC)cc21 [Compound 632]	500 to 2000	
C=Cn1c(-c2ccc(NS(=O)(=O)CCC)cc2)c(C#N)c2ccc(OC)cc21 [Compound 634]	500 to 2000	
C=Cn1c(-c2ccc(NS(=O)(=O)CCCCl)cc2)c(C#N)c2ccc(OC)cc21 [Compound 636]	< 500	
CCn1c(-c2ccc(NC(=O)OCCCl)cc2)c(C#N)c2ccc(OC)cc21 [Compound 637]		< 500
CCCn1c(-c2cccc(NS(=O)(=O)CCC)c2)c(C#N)c2ccc(OC)cc21 [Compound 639]	> 2000	
CCCn1c(-c2ccc(NC(=O)OCCF)cc2)c(C#N)c2ccc(OC)cc21 [Compound 640]	500 to 2000	
CCCn1c(-c2ccc(N(C)S(=O)(=O)CC)cc2)c(C#N)c2ccc(OC)cc21 [Compound 643]	500 to 2000	
CCC(=O)Nc1ccc(-c2c(C#N)c3cc(OC)ccc3n2CC)cc1 [Compound 644]	> 2000	

SMILES	IC50 [1] [nM]	IC50 (Hepatitis C virus, 48 h) [nM]
CCn1c(-c2ccc(NC(=O)c3ccc4c(c3)OCO4)cc2)c(C#N)c2ccccc21 [Compound 645]	> 2000	
CCn1c(-c2ccc(NC(=O)c3ccco3)cc2)c(C#N)c2ccccc21 [Compound 646]	500 to 2000	
CCn1c(-c2ccc(C(=O)Nc3ccc(Cl)cc3)cc2)c(C#N)c2cc(OC)ccc21 [Compound 647]	> 2000	
CCn1c(-c2ccc(C(=O)Nc3ccc(Cl)c(Cl)c3)cc2)c(C#N)c2cc(OC)ccc21 [Compound 648]	500 to 2000	
CCCn1c(-c2ccc(N3CCCS3(=O)=O)cc2)c(C#N)c2ccc(OC)cc21 [Compound 649]	500 to 2000	
CCn1c(-c2ccc(NS(=O)(=O)CCN3CCSCC3)cc2)c(C#N)c2ccc(OC)cc21 [Compound 654]	> 2000	
COc1ccc2c(C#N)c(-c3ccc(NS(C)(=O)=O)cc3)n(CC3CCCC3)c2c1 [Compound 655]	> 2000	
CCn1c(-c2ccc(N)cc2)c(C#N)c2ccc(OC(F)(F)F)cc21 [Compound 656]	> 2000	
CCn1c(-c2ccc(NS(=O)(=O)CC)cc2)c(C#N)c2c(Cl)cccc21 [Compound 657]	> 2000	
N#Cc1c(-c2ccc(N3CCCS3(=O)=O)cc2)n(CC2CC2)c2cc(OC(F)F)ccc12 [Compound 659]	500 to 2000	
CCCS(=O)(=O)Nc1ccccc1-c1c(C#N)c2ccc(OC)cc2n1CC [Compound 662]		< 500
CC(C)Oc1ccc2c(C#N)c(-c3ccc(O)c(N)c3)[nH]c2c1 [Compound 663]	> 2000	
CCCOC(=O)Nc1ccc(F)c(-c2c(C#N)c3ccc(OC(C)C)cc3n2CC)c1 [Compound 664]	> 2000	
CCn1c(-c2cc(NC(=O)OCCCl)ccc2F)c(C#N)c2ccc(OC(C)C)cc21 [Compound 665]	> 2000	
CCn1c(-c2cccc(CN(C)S(C)(=O)=O)c2)c(C#N)c2ccc(OC)cc21 [Compound 673]	> 2000	
CCS(=O)(=O)Nc1ccc(-c2c(C#N)c3ccc(OC)cc3n2CCOC)cc1 [Compound 674]	> 2000	
CCn1c(-c2ccc3c(c2)CCN3)c(C#N)c2ccc(OC)cc21 [Compound 678]	> 2000	
CCCS(=O)(=O)Nc1ccc(-c2c(C#N)c3ccc(OC(F)F)cc3n2CC2CC2)cc1 [Compound 682]	500 to 2000	
N#Cc1c(-c2ccc(NS(=O)(=O)CCCCl)cc2)n(CC2CC2)c2cc(OC(F)F)ccc12 [Compound 683]	500 to 2000	
CCS(=O)(=O)N(C)c1ccc(-c2c(C#N)c3ccc(OC)cc3n2C(C)C)cc1 [Compound 684]	> 2000	

Source: patent US8013006B2
